Experimental data as given in PubChem BioAssay AID200 (DTP/NCI, 2004).
Values joined by “and” are separate entries in the source; they are usually repeats but may differ in a detail not shown here. Equal values may be shown once. Toxic doses and inconclusive results are not listed. Where a SMILES comes first, the peptide text is derived from it. The star is where a group is joined. Cbz = O=C(OCc1ccccc1)*

Tested on: B6C3F1 mice, B16 melanoma ip, median survival T/C
Test: NCI In Vivo Anticancer Drug Screen. Data for tumor model B16 Melanoma (intraperitoneal) in B6C3F1 mice
Conditions: endpoint: median survival time, higher = longer survival
Outline: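 Transplantable tumor in mice; treated vs vehicle control groups; survival or tumor size measured; value = T/C ratio.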

[1] = dose: 25.0 mg/kg/injection, schedule: Q01DX009 (ip), vehicle: Klucel (hydroxypropylcellulose) (HPC)
[2] = dose: 50.0 mg/kg/injection, schedule: Q01DX009 (ip), vehicle: Klucel (hydroxypropylcellulose) (HPC)
[3] = dose: 100.0 mg/kg/injection, schedule: Q01DX009 (ip), vehicle: Klucel (hydroxypropylcellulose) (HPC)
[4] = dose: 200.0 mg/kg/injection, schedule: Q01DX009 (ip), vehicle: Klucel (hydroxypropylcellulose) (HPC)
[5] = dose: 400.0 mg/kg/injection, schedule: Q01DX009 (ip), vehicle: Klucel (hydroxypropylcellulose) (HPC)
[6] = dose: 50.0 mg/kg/injection, schedule: Q01DX009 (ip), vehicle: saline with Tween-80
[7] = dose: 100.0 mg/kg/injection, schedule: Q01DX009 (ip), vehicle: saline with Tween-80
[8] = dose: 200.0 mg/kg/injection, schedule: Q01DX009 (ip), vehicle: saline with Tween-80
[9] = dose: 12.5 mg/kg/injection, schedule: Q01DX009 (ip), vehicle: saline with Tween-80
[10] = dose: 25.0 mg/kg/injection, schedule: Q01DX009 (ip), vehicle: saline with Tween-80
[11] = dose: 1.56 mg/kg/injection, schedule: Q01DX009 (ip), vehicle: saline with Tween-80
[12] = dose: 3.12 mg/kg/injection, schedule: Q01DX009 (ip), vehicle: saline with Tween-80
[13] = dose: 6.25 mg/kg/injection, schedule: Q01DX009 (ip), vehicle: saline with Tween-80

CN(C)N=Nc1cn[nH]c1C(N)=O
T/C (dose: 12.5 mg/kg/injection, schedule: Q01DX009 (ip), vehicle: Klucel (hydroxypropylcellulose) (HPC)): 98 % of control
T/C [1]: 91 % of control
T/C [2]: 96 % of control
T/C [3]: 87 % of control
T/C [4]: 89 % of control
T/C [5]: 86 % of control

CC1=CCC[C@@H]2C1(C)CCC(C)[C@@]2(C)CC1=CC(=O)C=CC1=O (stereo partly specified)
T/C (dose: 0.75 mg/kg/injection, schedule: Q01DX009 (ip), vehicle: Klucel (hydroxypropylcellulose) (HPC)): 93 % of control
T/C (dose: 1.25 mg/kg/injection, schedule: Q01DX009 (ip), vehicle: Klucel (hydroxypropylcellulose) (HPC)): 95 % of control

O=C1c2cccc(NCCCNCCO)c2C(=O)c2cccc(NCCCNCCO)c21
T/C (dose: 6.25 mg/kg/injection, schedule: Q01DX009 (ip), vehicle: acid diluted with saline): 102 % of control
T/C (dose: 12.5 mg/kg/injection, schedule: Q01DX009 (ip), vehicle: acid diluted with saline): 108 % of control
T/C (dose: 25.0 mg/kg/injection, schedule: Q01DX009 (ip), vehicle: acid diluted with saline): 154 % of control

O=C(O)CNC(=O)C(CSCc1ccccc1)NC(=O)OCc1ccccc1 (stereo unspecified)
T/C [2]: 95 % of control
T/C [6]: 95 % of control
T/C [3]: 107 % of control
T/C [7]: 88 % of control
T/C [4]: 102 % of control
T/C [8]: 90 % of control

CCN(Cc1ccc(Cl)c(Cl)c1)c1ccc2nc(N)nc(N)c2c1C
T/C (dose: 3.12 mg/kg/injection, schedule: Q01DX009 (ip), vehicle: water): 112 % of control and 123 % of control
T/C (dose: 3.13 mg/kg/injection, schedule: Q01DX009 (ip), vehicle: distilled water + Tween-80): 120 % of control
T/C (dose: 6.25 mg/kg/injection, schedule: Q01DX009 (ip), vehicle: water): 124 % of control
T/C (dose: 12.5 mg/kg/injection, schedule: Q01DX009 (ip), vehicle: water): 92 % of control
T/C (dose: 25.0 mg/kg/injection, schedule: Q01DX009 (ip), vehicle: water): 150 % of control

CC[PH+](CC)CC[S-].CC[PH+](CC)CC[S-].[Au+].[Au+]
T/C (dose: 5.0 mg/kg/injection, schedule: Q01DX009 (ip), vehicle: Klucel (hydroxypropylcellulose) (HPC)): 94 % of control
T/C (dose: 10.0 mg/kg/injection, schedule: Q01DX009 (ip), vehicle: Klucel (hydroxypropylcellulose) (HPC)): 97 % of control
T/C (dose: 20.0 mg/kg/injection, schedule: Q01DX009 (ip), vehicle: Klucel (hydroxypropylcellulose) (HPC)): 97 % of control
T/C (dose: 40.0 mg/kg/injection, schedule: Q01DX009 (ip), vehicle: Klucel (hydroxypropylcellulose) (HPC)): 95 % of control

Cc1ccc(S(=O)(=O)NC(=S)S)cc1
T/C [9]: 92 % of control
T/C [10]: 92 % of control
T/C [6]: 95 % of control
T/C [7]: 97 % of control
T/C [8]: 94 % of control

O=C(N/N=C/c1cccc(O)c1O)N/N=C/c1cccc(O)c1O
T/C [9]: 118 % of control
T/C [10]: 112 % of control
T/C [6]: 116 % of control
T/C [7]: 106 % of control
T/C [8]: 106 % of control

Cn1c2ccccc2c(=O)c2c(O)cc3c(c21)C=CC(C)(C)O3
T/C [1]: 86 % of control
T/C [2]: 89 % of control
T/C [3]: 96 % of control

CCOC(OCC)C(=O)OCC(=O)[C@]1(O)Cc2c(O)c3c(c(O)c2[C@@H](OC2CC(N)C(O)C(C)O2)C1)C(=O)c1c(OC)cccc1C3=O (stereo partly specified)
T/C (dose: 0.12 mg/kg/injection, schedule: Q01DX009 (ip), vehicle: water): 155 % of control
T/C (dose: 0.13 mg/kg/injection, schedule: Q01DX009 (ip), vehicle: water): 165 % of control
T/C (dose: 0.25 mg/kg/injection, schedule: Q01DX009 (ip), vehicle: water): 177 % of control and 182 % of control
T/C (dose: 0.5 mg/kg/injection, schedule: Q01DX009 (ip), vehicle: water): 208 % of control and 285 % of control
T/C (dose: 1.0 mg/kg/injection, schedule: Q01DX009 (ip), vehicle: water): 189 % of control and 285 % of control
T/C (dose: 2.0 mg/kg/injection, schedule: Q01DX009 (ip), vehicle: water): 212 % of control and 285 % of control
T/C (dose: 4.0 mg/kg/injection, schedule: Q01DX009 (ip), vehicle: water): 285 % of control

Cc1c2ccncc2c(C)c2c1[nH]c1ccccc12
T/C (dose: 1.25 mg/kg/injection, schedule: Q01DX009 (ip), vehicle: distilled water + Tween-80): 106 % of control
T/C (dose: 1.25 mg/kg/injection, schedule: Q01DX009 (ip), vehicle: water): 105 % of control
T/C (dose: 2.5 mg/kg/injection, schedule: Q01DX009 (ip), vehicle: distilled water + Tween-80): 117 % of control
T/C (dose: 2.5 mg/kg/injection, schedule: Q01DX009 (ip), vehicle: water): 104 % of control
T/C (dose: 5.0 mg/kg/injection, schedule: Q01DX009 (ip), vehicle: water): 117 % of control
T/C (dose: 10.0 mg/kg/injection, schedule: Q01DX009 (ip), vehicle: distilled water + Tween-80): 151 % of control
T/C (dose: 20.0 mg/kg/injection, schedule: Q01DX009 (ip), vehicle: distilled water + Tween-80): 173 % of control

Cc1ccc(NCCN(C)C)c2c(=O)c3cc(O)ccc3sc12
T/C (dose: 12.0 mg/kg/injection, schedule: Q01DX009 (ip), vehicle: Klucel (hydroxypropylcellulose) (HPC)): 164 % of control
T/C [1]: 183 % of control
T/C [2]: 87 % of control

O=C1c2ccccc2C(=O)c2c(NCCNCCO)ccc(O)c21
T/C (dose: 2.5 mg/kg/injection, schedule: Q01DX009 (ip), vehicle: suspension in saline): 118 % of control
T/C (dose: 20.0 mg/kg/injection, schedule: Q01DX009 (ip), vehicle: suspension in saline): 153 % of control
T/C (dose: 40.0 mg/kg/injection, schedule: Q01DX009 (ip), vehicle: suspension in saline): 184 % of control
T/C (dose: 80.0 mg/kg/injection, schedule: Q01DX009 (ip), vehicle: suspension in saline): 190 % of control

CC1=C(C)C(=O)O[C@@H]([C@](C)(O)[C@]2(O)CC[C@@]3(O)[C@@H]4C[C@H]5O[C@]56CC=CC(=O)[C@]6(C)[C@H]4CC[C@]23C)C1
T/C [11]: 121 % of control
T/C [12]: 108 % of control
T/C [13]: 120 % of control
T/C (dose: 6.25 mg/kg/injection, schedule: Q01DX009 (ip), vehicle: saline): 120 % of control
T/C [9]: 88 % of control
T/C (dose: 12.5 mg/kg/injection, schedule: Q01DX009 (ip), vehicle: saline): 153 % of control
T/C (dose: 25.0 mg/kg/injection, schedule: Q01DX009 (ip), vehicle: saline): 175 % of control

NC(=S)c1ncn(C2OC(COC=O)C(OC=O)C2OC=O)c1NC=O (stereo unspecified)
T/C [1]: 100 % of control
T/C [2]: 100 % of control
T/C [3]: 92 % of control
T/C [4]: 87 % of control

CC(C)C(NC(=O)C(Cc1cnc[nH]1)NC(=O)OCc1ccccc1)C(=O)O (stereo not drawn) (Cbz-His-Val-OH; configuration not given here)
T/C [3]: 94 % of control
T/C [4]: 102 % of control
T/C [5]: 102 % of control

O=[n+]1c2ccccc2n([O-])c2ccccc21.[Cl][Ni][Cl]
T/C [11]: 103 % of control
T/C [12]: 95 % of control
T/C [13]: 97 % of control
T/C [9]: 113 % of control
T/C [10]: 91 % of control

COc1cc(NS(C)(=O)=O)ccc1Nc1c2ccc(Cl)cc2nc2c(OC)cccc12
T/C (dose: 2.0 mg/kg/injection, schedule: Q01DX005 (ip), vehicle: water): 165 % of control
T/C (dose: 2.0 mg/kg/injection, schedule: Q01DX005 (iv), vehicle: water): 111 % of control
T/C (dose: 4.0 mg/kg/injection, schedule: Q01DX001 (iv), vehicle: water): 101 % of control
T/C (dose: 4.0 mg/kg/injection, schedule: Q01DX005 (ip), vehicle: water): 174 % of control
T/C (dose: 8.0 mg/kg/injection, schedule: Q01DX001 (iv), vehicle: water): 102 % of control
T/C (dose: 8.0 mg/kg/injection, schedule: Q01DX005 (ip), vehicle: water): 178 % of control
T/C (dose: 16.0 mg/kg/injection, schedule: Q01DX001 (iv), vehicle: water): 100 % of control
